Paper PMC12310023 (PLOS Neglected Tropical Diseases, 2025)

Tests used:
[1] = Cytotoxicity; settings: human, HEPG2 hepatocyte cell line
[2] = target: HsSrC (Homo sapiens, UniProt P12931); assay: SrC enzyme inhibition; assay type: biochemical
Description: (§1) […]. […] All other methods are specified in S1 File.

[3] = system: NLuc-expressing C. parvum; assay: NLuc C. parvum IFNγ-KO mouse infection model, oocyst shedding; assay type: in vivo
[4] = system: zebrafish embryos; assay: Zebrafish developmental safety assay; settings: 4 days
[5] = Hepatocyte stability; settings: mouse
[6] = Stability of M2 hemiaminal in buffer; assay type: physicochemical; settings: pH 6.8 phosphate buffer, ambient temperature
[7] = Hepatocyte stability; settings: monkey
[8] = Liver microsome stability; settings: mouse, pooled liver microsomes
[9] = target: C. parvum CDPK1 (Cryptosporidium parvum, UniProt A3FQ16); assay: CpCDPK1 enzyme inhibition; assay type: biochemical
Chain of C. parvum CDPK1 (A3FQ16 1-538): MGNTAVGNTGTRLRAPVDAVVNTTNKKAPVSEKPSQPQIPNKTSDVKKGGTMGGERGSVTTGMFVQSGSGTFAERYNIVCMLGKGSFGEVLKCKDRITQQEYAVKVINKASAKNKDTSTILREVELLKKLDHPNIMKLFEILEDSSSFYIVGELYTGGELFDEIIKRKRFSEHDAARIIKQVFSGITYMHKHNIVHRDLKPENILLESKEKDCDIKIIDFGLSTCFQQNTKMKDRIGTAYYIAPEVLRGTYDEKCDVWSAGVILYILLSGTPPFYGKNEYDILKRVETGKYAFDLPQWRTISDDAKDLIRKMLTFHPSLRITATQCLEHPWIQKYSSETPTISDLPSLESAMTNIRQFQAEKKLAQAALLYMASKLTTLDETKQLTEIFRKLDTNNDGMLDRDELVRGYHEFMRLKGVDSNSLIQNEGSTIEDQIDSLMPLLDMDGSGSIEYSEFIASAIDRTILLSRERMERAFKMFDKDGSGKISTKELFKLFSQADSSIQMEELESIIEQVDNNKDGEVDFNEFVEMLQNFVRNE
Description: as §1

[10] = system: CYP3A12; assay: CYP Induction Assay in dog hepatocytes; settings: 30 and 100 μM, 48 h
[11] = Monkey PK (r15 PO 1, r16 IV 1 mg/kg); assay type: in vivo
[12] = target: T1, CYP2D6 (Homo sapiens, UniProt P10635); assay: CYP reaction phenotyping, recombinant supersomes
T1 sequence (P10635 whole entry): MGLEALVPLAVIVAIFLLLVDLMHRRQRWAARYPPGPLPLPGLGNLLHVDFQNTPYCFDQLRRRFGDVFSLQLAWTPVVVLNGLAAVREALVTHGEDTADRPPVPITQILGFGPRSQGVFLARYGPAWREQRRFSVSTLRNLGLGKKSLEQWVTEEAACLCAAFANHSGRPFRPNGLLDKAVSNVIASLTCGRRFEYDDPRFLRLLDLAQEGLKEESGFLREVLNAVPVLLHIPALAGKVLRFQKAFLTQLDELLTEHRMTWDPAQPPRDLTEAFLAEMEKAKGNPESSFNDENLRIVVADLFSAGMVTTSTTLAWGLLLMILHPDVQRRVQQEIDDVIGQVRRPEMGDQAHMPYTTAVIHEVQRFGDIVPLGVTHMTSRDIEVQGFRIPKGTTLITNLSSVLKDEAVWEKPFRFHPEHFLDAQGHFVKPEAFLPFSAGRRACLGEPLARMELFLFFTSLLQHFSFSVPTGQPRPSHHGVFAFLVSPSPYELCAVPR

[13] = target: T1, CYP2D6; assay: in vitro; settings: recombinant CYP2D6 supersomes
[14] = target: T2, CYP2B6 (Homo sapiens, UniProt P20813); assay: CYP reaction phenotyping, recombinant supersomes
T2 sequence (P20813 1-491): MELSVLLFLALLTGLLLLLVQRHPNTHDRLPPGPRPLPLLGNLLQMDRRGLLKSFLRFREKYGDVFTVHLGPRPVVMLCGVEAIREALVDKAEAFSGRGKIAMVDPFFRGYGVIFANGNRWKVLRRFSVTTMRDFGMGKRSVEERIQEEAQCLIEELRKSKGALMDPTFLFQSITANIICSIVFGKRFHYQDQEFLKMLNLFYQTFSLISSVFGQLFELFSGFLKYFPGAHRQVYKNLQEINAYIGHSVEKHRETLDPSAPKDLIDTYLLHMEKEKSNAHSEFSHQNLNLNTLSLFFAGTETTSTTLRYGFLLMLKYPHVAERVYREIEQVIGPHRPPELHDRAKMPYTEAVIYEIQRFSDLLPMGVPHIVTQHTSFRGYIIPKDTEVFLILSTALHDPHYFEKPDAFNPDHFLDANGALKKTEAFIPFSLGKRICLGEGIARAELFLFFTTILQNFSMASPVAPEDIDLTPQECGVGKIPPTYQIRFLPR

[15] = Plasma protein binding, equilibrium dialysis; settings: mouse
[16] = liver microsomes and primary hepatocytes

Chain of HsSrC (P12931 whole entry): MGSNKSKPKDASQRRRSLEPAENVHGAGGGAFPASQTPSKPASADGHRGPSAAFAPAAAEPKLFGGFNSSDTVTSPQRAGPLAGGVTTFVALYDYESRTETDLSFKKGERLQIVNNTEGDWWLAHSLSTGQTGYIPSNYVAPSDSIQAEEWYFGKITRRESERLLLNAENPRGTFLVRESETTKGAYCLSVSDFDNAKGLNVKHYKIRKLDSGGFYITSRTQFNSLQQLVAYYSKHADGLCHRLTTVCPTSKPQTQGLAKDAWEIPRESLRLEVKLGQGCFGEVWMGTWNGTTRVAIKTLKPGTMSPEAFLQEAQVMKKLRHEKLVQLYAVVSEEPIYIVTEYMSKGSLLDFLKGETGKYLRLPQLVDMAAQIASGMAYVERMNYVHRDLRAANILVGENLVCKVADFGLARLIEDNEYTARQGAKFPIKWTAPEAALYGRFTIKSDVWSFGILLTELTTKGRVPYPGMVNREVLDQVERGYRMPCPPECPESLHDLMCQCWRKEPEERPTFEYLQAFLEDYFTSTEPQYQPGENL

With `CC1(C)Cn2nc(-c3ccc4cc(OC5CC5)ccc4c3)c(C(N)=O)c2NC1O` (stereo not drawn) [M2] the CC50 [1] was 13.4 µM, the IC50 [2] was > 10 µM and the “day p.i. oocyst shedding reached LoD” value ([3]; M2 8 mg/kg x 3 days PO) was 17 days. For the same molecule, the “day p.i. oocyst shedding below LoD” value ([3]; M2 15 mg/kg x 3 days PO) was ≤ 10 days, the “day p.i. oocyst shedding below LoD” value ([3]; M2 30 mg/kg x 3 days PO) was ≤ 10 days and the “concentration up to which zebrafish embryo development was not affected” value [4] was 20 µM. The “LM:hepatocyte CLint_scaled ratio” value [5, 16] was 1.7, the CLint scaled ([5]; primary hepatocytes) was 45 mL/min/kg and the half-life ([5]; primary hepatocytes) was 4.37 h. The hepatocyte CLint ([5]; primary hepatocytes) was 5.3 µL/min/1e6 cells, the time hemiaminal stable [6] was “up to 24 h” and the “LM:hepatocyte CLint_scaled ratio” value [7, 16] was 5.5. It also gave a CLint scaled ([7]; primary hepatocytes) of 10 mL/min/kg, a half-life ([7]; primary hepatocytes) of 6.48 h and a hepatocyte CLint ([7]; primary hepatocytes) of 3.6 µL/min/1e6 cells. It also gave a CLint scaled [8] of 75 mL/min/kg, a half-life [8] of 1.97 h and a microsomal CLint [8] of 23.6 µL/min/mg. For the same molecule, the IC50 [9] was 0.0925 µM, the “fold reduction in potency compared to BKI-1708” value [9] was 132 fold and the “induction of CYP3A12” value [10] was “not found to be inducers”. The “M2 AUC0-inf” value ([11]; after BKI-1708 IV 1 mg/kg) was 63 ± 9 µmol·min/L, the “M2 AUC0-inf” value ([11]; after BKI-1708 PO 1 mg/kg) was 58 ± 13 µmol·min/L and the “% contribution” value [12] was 0.0%. For the same molecule, the CLint [12] was <0.029 µL/min/pmol, the CLint scaled [13] was < 0.183 mL/min/kg and the half-life [13] was > 4 h. For the same molecule, the “% contribution” value [14] was 5.1%, the CLint [14] was 0.044 µL/min/pmol and the fraction unbound [15] was 0.04.
